Organism: Rattus norvegicus
Assay: DrugMatrix - Regimen: Daily Repeat
Type: toxicity, organism-based, Sprague-Dawley
Set-up: regimen Daily Repeat, gender Male, age 6-8 weeks
Conditions: in vivo, po, route oral GAVAGE, vehicle 100 % WATER; for ABSOLUTE BASOPHIL / ABSOLUTE EOSINOPHIL / ABSOLUTE LYMPHOCYTE / ABSOLUTE MONOCYTE / ABSOLUTE SEGMENTED NEUTROPHIL / BASOPHIL / EOSINOPHIL / ERYTHROCYTE COUNT / HEMATOCRIT / HEMOGLOBIN / LEUKOCYTE COUNT / LYMPHOCYTE / MEAN CORPUSCULAR HEMOGLOBIN / MEAN CORPUSCULAR HEMOGLOBIN CONCENTRATION / MEAN CORPUSCULAR VOLUME / MONOCYTE / NEUTROPHIL / NUCLEATED RED BLOOD CELLS / PLATELET COUNT: tissue Blood; for ALANINE AMINOTRANSFERASE / ALBUMIN / ALKALINE PHOSPHATASE / ASPARTATE AMINOTRANSFERASE / BLOOD UREA NITROGEN / CARBON DIOXIDE / CHLORIDE / CHOLESTEROL / CREATINE PHOSPHOKINASE / CREATININE / GLUCOSE / LACTATE DEHYDROGENASE / LIPASE / PHOSPHORUS / POTASSIUM / SODIUM / TOTAL BILIRUBIN / TOTAL PROTEIN / URIC ACID: tissue Plasma
[1] = 0 mg/kg, 72 h, dose level Control, time 3 day
[2] = 0 mg/kg, 120 h, dose level Control, time 5 day
[3] = 200 mg/kg, 72 h, dose level Low, time 3 day

## CC(O)CO (centres undefined) [PROPYLENE GLYCOL]
[1]
  ABSOLUTE BASOPHIL: 0 CELLS/uL
  ABSOLUTE EOSINOPHIL: 40 CELLS/uL
  ABSOLUTE LYMPHOCYTE: 13599.5 CELLS/uL
  ABSOLUTE MONOCYTE: 239.33 CELLS/uL
  ABSOLUTE SEGMENTED NEUTROPHIL: 1021.17 CELLS/uL
  BASOPHIL: 0%
  EOSINOPHIL: 0.33%
  ERYTHROCYTE COUNT: 5.71 x10E6/uL
  HEMATOCRIT: 36.35%
  HEMOGLOBIN: 14.05 G/DL
  LEUKOCYTE COUNT: 14.9 x10E3/uL
  LYMPHOCYTE: 91%
  MEAN CORPUSCULAR HEMOGLOBIN: 24.62 pg
  MEAN CORPUSCULAR HEMOGLOBIN CONCENTRATION: 38.65 G/DL
  MEAN CORPUSCULAR VOLUME: 63.7 fL
  MONOCYTE: 1.5%
  NEUTROPHIL: 7.17%
  NUCLEATED RED BLOOD CELLS: 0.33 /100WBC
  PLATELET COUNT: 1225.5 x10E3/uL
  ALANINE AMINOTRANSFERASE: 48.5 u/L
  ALBUMIN: 4.18 G/DL
  ALKALINE PHOSPHATASE: 390.83 u/L
  ASPARTATE AMINOTRANSFERASE: 89 u/L
  BLOOD UREA NITROGEN: 14.83 mg/dL
  CARBON DIOXIDE: 24.83 mmol/L
  CHLORIDE: 100.83 MEQ/L
  CHOLESTEROL: 72.5 mg/dL
  CREATINE PHOSPHOKINASE: 503 u/L
  CREATININE: 0.2 mg/dL
  GLUCOSE: 163 mg/dL
  LACTATE DEHYDROGENASE: 316.83 u/L
  LIPASE: 9.83 u/L
  PHOSPHORUS: 11.57 mg/dL
  POTASSIUM: 6.16 MEQ/L
  SODIUM: 142.62 MEQ/L
  TOTAL BILIRUBIN: 0.2 mg/dL
  TOTAL PROTEIN: 5.8 G/DL
  URIC ACID: 1.65 mg/dL
[2]
  ABSOLUTE BASOPHIL: 0 CELLS/uL
  ABSOLUTE EOSINOPHIL: 21 CELLS/uL
  ABSOLUTE LYMPHOCYTE: 14288.5 CELLS/uL
  ABSOLUTE MONOCYTE: 205.33 CELLS/uL
  ABSOLUTE SEGMENTED NEUTROPHIL: 968.5 CELLS/uL
  BASOPHIL: 0%
  EOSINOPHIL: 0.17%
  ERYTHROCYTE COUNT: 5.83 x10E6/uL
  HEMATOCRIT: 36.53%
  HEMOGLOBIN: 14.4 G/DL
  LEUKOCYTE COUNT: 15.48 x10E3/uL
  LYMPHOCYTE: 92%
  MEAN CORPUSCULAR HEMOGLOBIN: 24.72 pg
  MEAN CORPUSCULAR HEMOGLOBIN CONCENTRATION: 39.43 G/DL
  MEAN CORPUSCULAR VOLUME: 62.68 fL
  MONOCYTE: 1.33%
  NEUTROPHIL: 6.5%
  NUCLEATED RED BLOOD CELLS: 0.17 /100WBC
  PLATELET COUNT: 1280.5 x10E3/uL
  ALANINE AMINOTRANSFERASE: 50 u/L
  ALBUMIN: 4.28 G/DL
  ALKALINE PHOSPHATASE: 380.17 u/L
  ASPARTATE AMINOTRANSFERASE: 82.67 u/L
  BLOOD UREA NITROGEN: 15.33 mg/dL
  CARBON DIOXIDE: 27.17 mmol/L
  CHLORIDE: 100.33 MEQ/L
  CHOLESTEROL: 60.67 mg/dL
  CREATINE PHOSPHOKINASE: 441.5 u/L
  CREATININE: 0.16 mg/dL
  GLUCOSE: 146 mg/dL
  LACTATE DEHYDROGENASE: 189.33 u/L
  LIPASE: 9.17 u/L
  PHOSPHORUS: 11.67 mg/dL
  POTASSIUM: 6.86 MEQ/L
  SODIUM: 142.33 MEQ/L
  TOTAL BILIRUBIN: 0.2 mg/dL
  TOTAL PROTEIN: 6.12 G/DL
  URIC ACID: 1.82 mg/dL
[3]
  ABSOLUTE BASOPHIL: 0 CELLS/uL
  ABSOLUTE EOSINOPHIL: 56 CELLS/uL
  ABSOLUTE LYMPHOCYTE: 15882 CELLS/uL
  ABSOLUTE MONOCYTE: 135.33 CELLS/uL
  ABSOLUTE SEGMENTED NEUTROPHIL: 1393.33 CELLS/uL
  BASOPHIL: 0%
  EOSINOPHIL: 0.33%
  ERYTHROCYTE COUNT: 5.52 x10E6/uL
  HEMATOCRIT: 35.37%
  HEMOGLOBIN: 13.53 G/DL
  LEUKOCYTE COUNT: 17.47 x10E3/uL
  LYMPHOCYTE: 90.67%
  MEAN CORPUSCULAR HEMOGLOBIN: 24.5 pg
  MEAN CORPUSCULAR HEMOGLOBIN CONCENTRATION: 38.27 G/DL
  MEAN CORPUSCULAR VOLUME: 64.1 fL
  MONOCYTE: 0.67%
  NEUTROPHIL: 8.33%
  NUCLEATED RED BLOOD CELLS: 0.33 /100WBC
  PLATELET COUNT: 1345.33 x10E3/uL
  ALANINE AMINOTRANSFERASE: 59 u/L
  ALBUMIN: 4.47 G/DL
  ALKALINE PHOSPHATASE: 378.33 u/L
  ASPARTATE AMINOTRANSFERASE: 90.33 u/L
  BLOOD UREA NITROGEN: 16.33 mg/dL
  CARBON DIOXIDE: 27.33 mmol/L
  CHLORIDE: 99.67 MEQ/L
  CHOLESTEROL: 81.33 mg/dL
  CREATINE PHOSPHOKINASE: 318 u/L
  CREATININE: 0.22 mg/dL
  GLUCOSE: 153.67 mg/dL
  LACTATE DEHYDROGENASE: 212.33 u/L
  LIPASE: 9 u/L
  PHOSPHORUS: 13.4 mg/dL
  POTASSIUM: 7.26 MEQ/L
  SODIUM: 145.23 MEQ/L
  TOTAL BILIRUBIN: 0.2 mg/dL
  TOTAL PROTEIN: 6.13 G/DL
  URIC ACID: 2.2 mg/dL

— ChEMBL document CHEMBL3885881, “DrugMatrix”
